The source of these data is ChEMBL document CHEMBL3879881, “Substituted pyrazolyl compounds for the treatment of inflammation” (2005).

In this test the target is T1, Inhibitor of nuclear factor kappa-B kinase subunit beta (Homo sapiens, UniProt O14920).
T1 sequence (O14920 whole entry): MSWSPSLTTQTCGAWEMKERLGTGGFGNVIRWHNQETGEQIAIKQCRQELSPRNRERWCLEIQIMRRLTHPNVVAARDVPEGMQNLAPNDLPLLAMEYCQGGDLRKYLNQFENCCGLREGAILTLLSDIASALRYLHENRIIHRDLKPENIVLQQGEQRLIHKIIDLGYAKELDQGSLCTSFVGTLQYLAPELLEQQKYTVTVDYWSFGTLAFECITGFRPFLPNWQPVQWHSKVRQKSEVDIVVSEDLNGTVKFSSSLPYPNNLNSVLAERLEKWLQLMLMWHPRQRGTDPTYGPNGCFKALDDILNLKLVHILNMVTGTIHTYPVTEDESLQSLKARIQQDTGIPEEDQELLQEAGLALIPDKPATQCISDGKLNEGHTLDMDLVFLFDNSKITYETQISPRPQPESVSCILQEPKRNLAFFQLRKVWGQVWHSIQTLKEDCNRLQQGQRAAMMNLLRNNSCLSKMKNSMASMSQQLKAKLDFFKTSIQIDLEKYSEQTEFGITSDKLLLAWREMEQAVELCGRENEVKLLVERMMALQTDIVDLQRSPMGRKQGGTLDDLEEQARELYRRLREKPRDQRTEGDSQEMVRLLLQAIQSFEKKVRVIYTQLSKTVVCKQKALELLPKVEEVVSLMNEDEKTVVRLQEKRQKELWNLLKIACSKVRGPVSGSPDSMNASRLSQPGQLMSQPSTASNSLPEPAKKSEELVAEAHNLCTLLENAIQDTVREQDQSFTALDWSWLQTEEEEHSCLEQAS
The test is described as follows: Inhibition of human recombinant C-terminal FLAG-epitope-tagged IKK2 expressed in baculovirus using biotinylated IkappaBalpha peptide as substrate assessed as decrease in [gamma-33P]-ATP incorporation in substrate after 30 mins by scintillation counting method.

Broadly, the IC50 is the concentration needed to halve the response being measured. For the compound `CCCS(=O)(=O)c1ccc(-n2nc(C(N)=O)c3c2-c2cc(NS(C)(=O)=O)ccc2CC3)cc1`, the IC50 is 1000 to 10000 nM. For `CN(C)S(=O)(=O)c1ccc(-n2nc(C(N)=O)c3c2-c2cc(NC(=O)c4cccc(Cl)c4)ccc2CC3)cc1`, the IC50 lay within 1000 to 10000 nM. In the case of `CCN1CCN(c2cc(C(=O)Nc3ccc4c(c3)-c3c(c(C(N)=O)nn3-c3ccc(F)cc3)CC4)c(Cl)cn2)CC1` it was not above 1000 nM. As to `CS(=O)(=O)c1ccc(-n2nc(C(N)=O)c3c2-c2cc(NC(=O)c4cc(Cl)ncc4Cl)ccc2CC3)cc1`, the IC50 was not above 1000 nM.

Regarding `CC1Cc2c(C(N)=O)nn(-c3ccc(F)cc3)c2-c2cc(NC(=O)c3ccncc3Cl)ccc21` (stereo not drawn), the IC50 is not above 1000 nM. Take `CN1CCN(c2cc(C(=O)Nc3ccc4c(c3)-c3c(c(C(N)=O)nn3-c3ccc(S(C)(=O)=O)cc3)CC4)c(Cl)cn2)CC1`: the IC50 is not above 1000 nM. In the case of `CC1Cc2c(C(N)=O)nn(-c3ccc(F)cc3F)c2-c2cc(NC(=O)c3ccncc3Cl)ccc21` (stereo not drawn) it was not above 1000 nM. As for `NC(=O)c1nn(-c2ccc(F)cc2)c2c1CCc1ccc(NC(=O)c3cc(N4CCN(CCO)CC4)ncc3Cl)cc1-2`, the IC50 was not above 1000 nM. In the case of `CN1CCN(c2ncc(Cl)c(C(=O)Nc3ccc4c(c3)-c3c(c(C(N)=O)nn3-c3ccc(F)cc3)CC4)n2)CC1` it was not above 1000 nM; in that of `NC(=O)c1nn(-c2ccc3c(c2)OCO3)c2c1CCc1ccc(NC(=O)c3nc(CN4CCOCC4)ccc3Cl)cc1-2`, not above 1000 nM; in that of `NC(=O)c1nn(-c2ccc(F)cc2)c2c1CCc1ccc(NC(=O)c3cc(-c4ccncc4)ncc3Cl)cc1-2`, not above 1000 nM. Turning to `NC(=O)c1nn(-c2ccc(S(=O)(=O)N3CCOCC3)cc2)c2c1CCc1ccc(N)cc1-2`, the IC50 lay within 1000 to 10000 nM. To `NC(=O)c1nn(-c2ccc(F)cc2)c2c1CCc1ccc(NC(=O)c3cc(CCN4CCOCC4)ncc3Cl)cc1-2` belongs not above 1000 nM; to `N#Cc1cc(C(=O)Nc2ccc3c(c2)-c2c(c(C(N)=O)nn2-c2ccc(F)cc2)CC3)c(Cl)cn1`, not above 1000 nM; to `NC(=O)c1nn(-c2ccc3c(c2)OCO3)c2c1CCc1ccc(NC(=O)c3cc(CCN4CCOCC4)ncc3Cl)cc1-2`, not above 1000 nM.

For `C[S+]([O-])c1ccc(-n2nc(C(N)=O)c3c2-c2cc(NC(=O)c4cccnc4Cl)ccc2CC3)cc1` (stereo not drawn), the IC50 is not above 1000 nM. As for `C[C@@H]1CN(c2cc(C(=O)Nc3ccc4c(c3)-c3c(c(C(N)=O)nn3-c3ccc(F)cc3)CC4)c(Cl)cn2)C[C@H](C)N1C`, the IC50 was not above 1000 nM.

In the case of `CC1Cc2c(C(N)=O)nn(-c3ccc(F)cc3)c2-c2cc(NC(=O)c3cccnc3Cl)ccc21` (stereo not drawn), the IC50 is not above 1000 nM. On to `C[S+]([O-])c1ccc(-n2nc(C(N)=O)c3c2-c2cc(NS(C)(=O)=O)ccc2CC3)cc1` (stereo not drawn), for which the IC50 lay within 1000 to 10000 nM. Regarding `C[C@@H]1CN(c2cc(C(=O)Nc3ccc4c(c3)-c3c(c(C(N)=O)nn3-c3ccc(F)cc3)CC4)c(Cl)cn2)C[C@H](C)N1`, the IC50 was not above 1000 nM. As for `CN1CCN(c2ncc(Cl)c(C(=O)Nc3ccc4c(c3)-c3c(c(C(N)=O)nn3-c3ccc5c(c3)OCO5)CC4)n2)CC1`, the IC50 is not above 1000 nM. In the case of `CCCS(=O)(=O)c1ccc(-n2nc(C(N)=O)c3c2-c2cc(N)ccc2CC3)cc1` it was 1000 to 10000 nM; in that of `CCCS(=O)(=O)c1ccc(-n2nc(C(N)=O)c3c2-c2cc(NC(=O)c4cc(NC(=O)OC(C)(C)C)ccc4Cl)ccc2CC3)cc1`, 1000 to 10000 nM; in that of `CSc1ccc(-n2nc(C(N)=O)c3c2-c2cc(NC(=O)c4ccccc4Cl)ccc2CC3)cc1`, 1000 to 10000 nM. On to `NC(=O)c1nn(-c2ccc(S(=O)(=O)N3CC=CC3)cc2)c2c1CCc1ccc(N)cc1-2`, for which the IC50 was 1000 to 10000 nM. In the case of `CS(=O)(=O)c1ncc(Cl)c(C(=O)Nc2ccc3c(c2)-c2c(c(C(N)=O)nn2-c2ccc4c(c2)OCO4)CC3)n1` it was not above 1000 nM; in that of `C#CCN(CC#C)S(=O)(=O)c1ccc(-n2nc(C(N)=O)c3c2-c2cc(NC(=O)c4ccccc4Cl)ccc2CC3)cc1`, 1000 to 10000 nM; in that of `CN1CC=C(c2cc(C(=O)Nc3ccc4c(c3)-c3c(c(C(N)=O)nn3-c3ccc(F)cc3)CC4)c(Cl)cn2)CC1`, not above 1000 nM. To `CN(C)CCNS(=O)(=O)c1ccc(-n2nc(C(N)=O)c3c2-c2cc(N)ccc2CC3)cc1` belongs 1000 to 10000 nM; to `CN(C)CCc1cc(C(=O)Nc2ccc3c(c2)-c2c(c(C(N)=O)nn2-c2ccc(F)cc2)CC3)c(Cl)cn1`, not above 1000 nM.

With `CC(=O)Nc1ccc2c(c1)-c1c(c(C(N)=O)nn1-c1ccc(S(=O)(=O)N(C)C)cc1)CC2`, the IC50 lay within 1000 to 10000 nM. For the compound `C=CCN(CC=C)S(=O)(=O)c1ccc(-n2nc(C(N)=O)c3c2-c2cc(NS(C)(=O)=O)ccc2CC3)cc1`, the half-maximal inhibitory concentration (IC50) lay within 1000 to 10000 nM. As for `CNCC(=O)Nc1ccc2c(c1)-c1c(c(C(N)=O)nn1-c1ccc3c(c1)OCO3)CC2`, the IC50 lay within 1000 to 10000 nM. On to `CC1Cc2c(C(N)=O)nn(-c3ccc(F)cc3)c2-c2cc(NC(=O)c3cc(N4CCN(C)CC4)ccc3Cl)ccc21` (stereo not drawn), for which the IC50 was not above 1000 nM. In the case of `C[S+]([O-])c1ccc(-n2nc(C(N)=O)c3c2-c2cc(NC(=O)c4ccncc4Cl)ccc2CC3)cc1` (stereo not drawn) it was not above 1000 nM; in that of `C[S+]([O-])c1ccc(-n2nc(C(N)=O)c3c2-c2cc(NC(=O)c4ccccc4Cl)ccc2CC3)cc1` (stereo not drawn), not above 1000 nM. In the case of `Cc1cc(Cl)ncc1C(=O)Nc1ccc2c(c1)-c1c(c(C(N)=O)nn1-c1ccc3c(c1)OCO3)CC2` it was not above 1000 nM; in that of `C[S+]([O-])c1ccc(-n2nc(C(N)=O)c3c2-c2cc(NC(=O)c4cc(N)ccc4Cl)ccc2CC3)cc1` (stereo not drawn), not above 1000 nM. In the case of `NCc1ccc(Cl)c(C(=O)Nc2ccc3c(c2)-c2c(c(C(N)=O)nn2-c2ccc4c(c2)OCO4)CC3)n1` it was 1000 to 10000 nM. `NCc1cc(C(=O)Nc2ccc3c(c2)-c2c(c(C(N)=O)nn2-c2ccc4c(c2)OCO4)CC3)c(Cl)cn1`: the IC50 is not above 1000 nM.

For `CC1Cc2c(C(N)=O)nn(-c3ccc(N)cc3F)c2-c2cc(NC(=O)c3ccncc3Cl)ccc21` (stereo not drawn), the IC50 is not above 1000 nM. Regarding `NC(=O)c1nn(-c2ccc(F)cc2)c2c1CCc1ccc(NC(=O)c3cc(CN4CCOCC4)ncc3Cl)cc1-2`, the IC50 is not above 1000 nM.

For `NC(=O)c1nn(-c2ccncc2)c2c1CCc1ccc(NC(=O)c3cc(Cl)ncc3Cl)cc1-2`, the IC50 was not above 1000 nM. Regarding `NC(=O)c1nn(-c2ccc3c(c2)OCO3)c2c1CCc1ccc(NC(=O)CNCC3CC3)cc1-2`, the IC50 is 1000 to 10000 nM. To `NC(=O)c1nn(-c2ccc(S(=O)(=O)CC3CC3)cc2)c2c1CCc1ccc(NC(=O)c3ccccc3Cl)cc1-2` belongs 1000 to 10000 nM; to `C[S+]([O-])c1ccc(-n2nc(C(N)=O)c3c2-c2cc(NC(=O)c4cc5c(cc4Cl)OCO5)ccc2CC3)cc1` (stereo not drawn), not above 1000 nM. Consider `NC(=O)c1nn(-c2ccc3c(c2)OCO3)c2c1CCc1ccc(NC(=O)CNC3CCCCC3)cc1-2`, for which the IC50 lay in the range of 1000 to 10000 nM. Turning to `N#Cc1cc(C(=O)Nc2ccc3c(c2)-c2c(c(C(N)=O)nn2-c2ccc4c(c2)OCO4)CC3)c(Cl)cn1`, the IC50 was not above 1000 nM. `NC(=O)c1nn(-c2ccc3c(c2)OCO3)c2c1CCc1ccc(NC(=O)CN3CCCC3)cc1-2`: the IC50 is 1000 to 10000 nM. Turning to `CN1CCN(c2cc(C(=O)Nc3ccc4c(c3)-c3c(c(C(N)=O)nn3-c3ccncc3)CC4)c(Cl)cn2)CC1`, the IC50 is not above 1000 nM. For `CCS(=O)(=O)c1ccc(-n2nc(C(N)=O)c3c2-c2cc(N)ccc2CC3)cc1`, the IC50 lay in the range of 1000 to 10000 nM. With `N#Cc1ccc(Cl)c(C(=O)Nc2ccc3c(c2)-c2c(c(C(N)=O)nn2-c2ccc4c(c2)OCO4)CC3)n1`, the IC50 lay in the range of 1000 to 10000 nM. For `CN(C)CCNS(=O)(=O)c1ccc(-n2nc(C(N)=O)c3c2-c2cc(NC(=O)c4ccccc4Cl)ccc2CC3)cc1`, the IC50 was not above 1000 nM. For `CCCCS(=O)(=O)c1ccc(-n2nc(C(N)=O)c3c2-c2cc(NC(=O)c4ccccc4Cl)ccc2CC3)cc1`, the IC50 lay within 1000 to 10000 nM. Take `CN(C)CCNc1cc(C(=O)Nc2ccc3c(c2)-c2c(c(C(N)=O)nn2-c2ccc(F)cc2)CC3)c(Cl)cn1`: the concentration for half-maximal inhibition (IC50) was not above 1000 nM. With `CC(C)N1CCN(c2cc(C(=O)Nc3ccc4c(c3)-c3c(c(C(N)=O)nn3-c3ccc(F)cc3)CC4)c(Cl)cn2)CC1`, the IC50 was not above 1000 nM. For the compound `C[C@H]1CN(c2cc(C(=O)Nc3ccc4c(c3)-c3c(c(C(N)=O)nn3-c3ccc(F)cc3)CC4)c(Cl)cn2)CCN1C`, the IC50 is not above 1000 nM. As for `C[C@@H]1CN(c2cc(C(=O)Nc3ccc4c(c3)-c3c(c(C(N)=O)nn3-c3ccc(F)cc3)CC4)c(Cl)cn2)CCN1`, the IC50 is not above 1000 nM. Consider `NC(=O)c1nn(-c2ccc(F)cc2)c2c1CCc1ccc(NC(=O)c3ccnc(N4CCOCC4)c3)cc1-2`, for which the IC50 was not above 1000 nM. As for `NC(=O)c1nn(-c2ccc(F)cc2)c2c1CCc1ccc(NC(=O)c3cc(N4CCCNCC4)ncc3Cl)cc1-2`, the IC50 was not above 1000 nM. As to `COCCN1CCN(c2cc(C(=O)Nc3ccc4c(c3)-c3c(c(C(N)=O)nn3-c3ccc(F)cc3)CC4)c(Cl)cn2)CC1`, the IC50 was not above 1000 nM. `C[C@@H]1CN(c2cc(C(=O)Nc3ccc4c(c3)-c3c(c(C(N)=O)nn3-c3ccc(F)cc3)CC4)c(Cl)cn2)CCN1C`: the IC50 is not above 1000 nM. On to `C[C@H]1CN(c2cc(C(=O)Nc3ccc4c(c3)-c3c(c(C(N)=O)nn3-c3ccc(F)cc3)CC4)c(Cl)cn2)CCN1`, for which the half-maximal inhibitory concentration (IC50) was not above 1000 nM.
